Source: US20090111736A1, “Orally-Absorbed Solid Dose Formulation for Vancomycin” (SRI International, priority 2007, published 2009)
Counter-ions that a name gives are not always drawn.

System: rat jejunum
Assay: In vitro mucosal-to-serosal vancomycin transport, modified Ussing chambers, jejunum
Assay type: in vitro ADME
Conditions: jejunum
Excerpt: We investigated regional variation in permeation of vancomycin (VCM) across various segments of rat intestine and colon in vitro by mounting isolated segments of rat intestine and colon between horizontal modified Ussing chambers. The effects of drug concentration and of addition of a p-glycoprotein inhibitor or permeation enhancer(s) as formulation additives on VCM permeation were also studied in vitro using segments of rat jejunum.
Methods: A modified Ussing system (Easy mount Ussing system, Physiological Instruments Inc., CA, Item # EM-CSYS-8) with eight sets of chambers was used for all in vitro studies; each set consisted of two parallel diffusion chambers, a heating block for temperature control, needle valves for gas flow adjustment and gas mixing, and Ag/AgCl voltage and current electrodes for measuring transepithelial voltage and for passing current.
Harvesting of required small intestinal or colon segments of a male rat was performed using experimental procedures described in the literature (Gotoh et al., J Biomol Screen (2005) 10:517-23). The harvested segments of small intestine or colon were mounted on sliders placed between the two horizontal chambers of a modified Ussing system.
VCM was dissolved in HEPES buffer pH 7.4 (Table 1) previously saturated with 100% O2 or HEPES buffer containing additives selected from permeation enhancer(s) and/or an efflux transport inhibitor (Table 2) to obtain predetermined concentrations of drug and additive(s).
Drug transport across epithelial membranes of harvested rat small intestine and colon segments, in mucosal-to-serosal (M-to-S) direction, was studied using modified Ussing Chambers. Aliquots of HEPES buffer (5 ml) were initially added to both the mucosal and serosal chambers and allowed to equilibrate for 20 minutes. The HEPES buffer in the mucosal chamber was replaced by a study sample containing VCM alone or VCM and selected additive(s) in HEPES buffer, e.g., 5 mg/mL of VCM dissolved in HEPES buffer containing 10% w/w Labrasol®. Aliquots of 0.5 mL buffer solutions were removed periodically from serosal chambers, and replaced with equal volumes of fresh warm (37±2° C.) HEPES buffer previously saturated with 100% O2. […]
Changes in transepithelial short-circuit current (in micro-Amps) and membrane resistance (in Ohms) as a function of time were monitored continuously during in vitro studies to serve as indicators of tissue viability and drug permeability, respectively. The buffer samples from the receptor chambers were analyzed for VCM content on a high pressure liquid chromatograph (HPLC; Hewlett Packard Model 1100 series).
The analysis of VCM samples was performed using a reverse phase gradient HPLC method, with a Hypersil BDS C18 column, 5 μm, 150×4.6 mm., mobile phase consisting of 5 mM potassium phosphate monobasic in water (pH 3) as solvent A and acetonitrile as solvent B at a flow rate of 1 ml/min (Farin et al., J Pharm Biomed Anal (1998) 18:367-72). The eluant was monitored by a UV/diode array detector at 280 nm.
To compare data obtained from different in vitro experiments, the apparent permeability coefficients were calculated using the equation: […]
Where dQ/dt is the linear appearance rate of mass in receiver compartment, C0 is the initial solute concentration in donor compartment, and A is the surface area (Luo et al., Drug Metab Dispos (2002) 30:763-70).

CN[C@H](CC(C)C)C(=O)N[C@H]1C(=O)N[C@@H](CC(N)=O)C(=O)N[C@H]2C(=O)N[C@H]3C(=O)N[C@H](C(=O)N[C@H](C(=O)O)c4cc(O)cc(O)c4-c4cc3ccc4O)[C@H](O)c3ccc(c(Cl)c3)Oc3cc2cc(c3O[C@@H]2O[C@H](CO)[C@@H](O)[C@H](O)[C@H]2O[C@H]2C[C@](C)(N)[C@H](O)[C@H](C)O2)Oc2ccc(cc2Cl)[C@H]1O [Vancomycin hydrochloride]
Ave. Cumulative Amt VCM Released (50 mg/ml in HEPES buffer without enhancer, 0.5 hr): 0.97 ± 1.37 µg
Ave. Cumulative Amt VCM Released (50 mg/ml in HEPES buffer without enhancer, 1.0 hr): 7.94 ± 5.19 µg
Ave. Cumulative Amt VCM Released (50 mg/ml in HEPES buffer without enhancer, 1.5 hr): 22.26 ± 4.61 µg
Ave. Cumulative Amt VCM Released (50 mg/ml in HEPES buffer without enhancer, 2.0 hr): 46.13 ± 1.25 µg
Ave. Cumulative Amt VCM Released (50 mg/ml in HEPES buffer without enhancer, 2.5 hr): 69.54 ± 4.20 µg
Ave. Cumulative Amt VCM Released (5% Gelucire ® 44/14 (w/w), 0.5 hr): 0.40 ± 0.79 µg
Ave. Cumulative Amt VCM Released (5% Gelucire ® 44/14 (w/w), 1.0 hr): 3.72 ± 0.40 µg
Ave. Cumulative Amt VCM Released (5% Gelucire ® 44/14 (w/w), 1.5 hr): 6.81 ± 1.07 µg
Ave. Cumulative Amt VCM Released (5% Gelucire ® 44/14 (w/w), 2.0 hr): 10.87 ± 1.53 µg
Ave. Cumulative Amt VCM Released (5% Gelucire ® 44/14 (w/w), 2.5 hr): 14.29 ± 2.36 µg
Ave. Cumulative Amt VCM Released (5% Gelucire ® 44/14 + 5% Labrasol ® (w/w), 0.5 hr): 0.81 ± 1.40 µg
Ave. Cumulative Amt VCM Released (5% Gelucire ® 44/14 + 5% Labrasol ® (w/w), 1.0 hr): 3.56 ± 0.25 µg
Ave. Cumulative Amt VCM Released (5% Gelucire ® 44/14 + 5% Labrasol ® (w/w), 1.5 hr): 6.63 ± 1.67 µg
Ave. Cumulative Amt VCM Released (5% Gelucire ® 44/14 + 5% Labrasol ® (w/w), 2.0 hr): 9.58 ± 1.81 µg
Ave. Cumulative Amt VCM Released (5% Gelucire ® 44/14 + 5% Labrasol ® (w/w), 2.5 hr): 13.78 ± 5.10 µg
Ave. Cumulative Amt VCM Released (5% Polysorbate-80 (w/w), 0.5 hr): 0.00 ± 0.00 µg
Ave. Cumulative Amt VCM Released (5% Polysorbate-80 (w/w), 1.0 hr): 2.33 ± 0.24 µg
Ave. Cumulative Amt VCM Released (5% Polysorbate-80 (w/w), 1.5 hr): 5.69 ± 1.64 µg
Ave. Cumulative Amt VCM Released (5% Polysorbate-80 (w/w), 2.0 hr): 10.15 ± 2.82 µg
Ave. Cumulative Amt VCM Released (5% Polysorbate-80 (w/w), 2.5 hr): 15.99 ± 3.24 µg
Ave. Cumulative Amt VCM Released (5% Polysorbate-80 + 5% w/w Labrasol ®, 0.5 hr): 0.00 ± 0.00 µg
Ave. Cumulative Amt VCM Released (5% Polysorbate-80 + 5% w/w Labrasol ®, 1.0 hr): 2.36 ± 0.16 µg
Ave. Cumulative Amt VCM Released (5% Polysorbate-80 + 5% w/w Labrasol ®, 1.5 hr): 3.85 ± 0.39 µg
Ave. Cumulative Amt VCM Released (5% Polysorbate-80 + 5% w/w Labrasol ®, 2.0 hr): 6.05 ± 0.80 µg
Ave. Cumulative Amt VCM Released (5% Polysorbate-80 + 5% w/w Labrasol ®, 2.5 hr): 10.12 ± 1.39 µg
Ave. Cumulative Amt VCM Released (5% TPGS ® + 5% Labrasol ® (w/w), 0.5 hr): 0.00 ± 0.00 µg
Ave. Cumulative Amt VCM Released (5% TPGS ® + 5% Labrasol ® (w/w), 1.0 hr): 1.26 ± 1.78 µg
Ave. Cumulative Amt VCM Released (5% TPGS ® + 5% Labrasol ® (w/w), 1.5 hr): 3.48 ± 1.13 µg
Ave. Cumulative Amt VCM Released (5% TPGS ® + 5% Labrasol ® (w/w), 2.0 hr): 6.40 ± 2.08 µg
Ave. Cumulative Amt VCM Released (5% TPGS ® + 5% Labrasol ® (w/w), 2.5 hr): 10.03 ± 3.20 µg
Papp value compared with VCM alone (5% w/w Labrasol® with 5% w/w Gelucire® 44/14): slightly higher than that of VCM alone
effect on M-to-S transport of VCM (5% w/w Labrasol® with 5% w/w Polysorbate 80): slightly reduced VCM transport
effect on M-to-S transport of VCM (5% w/w Labrasol® with 5% w/w Vitamin E TPGS®): slightly reduced VCM transport
Ave. Cumulative Amt VCM Released (10% Labrasol ® (w/w), 0.5 hr): 3.65 ± 1.22 µg
Ave. Cumulative Amt VCM Released (10% Labrasol ® (w/w), 1.0 hr): 3.72 ± 2.58 µg
Ave. Cumulative Amt VCM Released (10% Labrasol ® (w/w), 1.5 hr): 5.52 ± 1.36 µg
Ave. Cumulative Amt VCM Released (10% Labrasol ® (w/w), 2.0 hr): 7.48 ± 1.11 µg
Ave. Cumulative Amt VCM Released (10% Labrasol ® (w/w), 2.5 hr): 9.93 ± 1.23 µg
VCM transport compared with VCM alone or other excipients (10% w/w Labrasol®): lowest
effect on M-to-S transport of VCM (Gelucire® 44/14 at 5% w/w): enhanced M-to-S transport
Ave. Cumulative Amt VCM Released (HEPES only, no enhancer (enhancer / bile salt study), 0.5 hr): 0.00 ± 0.00 µg
Ave. Cumulative Amt VCM Released (HEPES only, no enhancer (enhancer / bile salt study), 1.0 hr): 2.16 ± 1.47 µg
Ave. Cumulative Amt VCM Released (HEPES only, no enhancer (enhancer / bile salt study), 1.5 hr): 4.13 ± 0.74 µg
Ave. Cumulative Amt VCM Released (HEPES only, no enhancer (enhancer / bile salt study), 2.0 hr): 8.28 ± 1.80 µg
Ave. Cumulative Amt VCM Released (HEPES only, no enhancer (enhancer / bile salt study), 2.5 hr): 14.45 ± 3.07 µg
Ave. Cumulative Amt VCM Released (No SD (sodium decanoate study), 0.5 hr): 0.00 ± 0.00 µg
Ave. Cumulative Amt VCM Released (No SD (sodium decanoate study), 1.0 hr): 0.00 ± 0.00 µg
Ave. Cumulative Amt VCM Released (No SD (sodium decanoate study), 1.5 hr): 0.00 ± 0.00 µg
Ave. Cumulative Amt VCM Released (No SD (sodium decanoate study), 2.0 hr): 1.43 ± 0.10 µg
Ave. Cumulative Amt VCM Released (No SD (sodium decanoate study), 2.5 hr): 2.15 ± 0.19 µg
effect on M-to-S transport of VCM (Polysorbate 80 at 5% w/w): enhanced M-to-S transport
